Assay results: ChEMBL document CHEMBL1131989 (Bioorg Med Chem Lett, 1999)

Key:
Cavia porcellus = organism: Cavia porcellus; assay: Concentration of compound required for evaluating efficacy in guinea pig ileum (GPI); format: functional, organism-based
Mu-type opioid receptor = Mu-type opioid receptor (Homo sapiens, UniProt P35372); assay: In vitro binding affinity towards mu opioid receptors was determined using [3H][p-Cl-Phe]- 4] DPDPE or [3H]deltorphin II
[1] = target: Delta-type opioid receptor (Homo sapiens, UniProt P41143); assay: In vitro binding affinity towards Opioid receptor delta 1 was determined using […]
Mus musculus = organism: Mus musculus; assay: Concentration of compound required for evaluating efficacy in mouse vas deferens (MVD); format: functional, organism-based

Chain of Delta-type opioid receptor (P41143 whole entry): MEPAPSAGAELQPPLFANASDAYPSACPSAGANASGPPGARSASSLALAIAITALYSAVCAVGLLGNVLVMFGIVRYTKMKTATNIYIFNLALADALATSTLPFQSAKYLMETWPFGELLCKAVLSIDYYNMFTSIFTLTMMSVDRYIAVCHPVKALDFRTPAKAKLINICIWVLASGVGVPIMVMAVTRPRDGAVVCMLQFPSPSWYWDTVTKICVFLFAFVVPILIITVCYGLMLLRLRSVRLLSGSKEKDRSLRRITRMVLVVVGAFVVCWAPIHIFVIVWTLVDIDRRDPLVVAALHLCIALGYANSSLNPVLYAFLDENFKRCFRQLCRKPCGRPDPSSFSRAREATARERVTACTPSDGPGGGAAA
Chain of Mu-type opioid receptor (P35372 whole entry): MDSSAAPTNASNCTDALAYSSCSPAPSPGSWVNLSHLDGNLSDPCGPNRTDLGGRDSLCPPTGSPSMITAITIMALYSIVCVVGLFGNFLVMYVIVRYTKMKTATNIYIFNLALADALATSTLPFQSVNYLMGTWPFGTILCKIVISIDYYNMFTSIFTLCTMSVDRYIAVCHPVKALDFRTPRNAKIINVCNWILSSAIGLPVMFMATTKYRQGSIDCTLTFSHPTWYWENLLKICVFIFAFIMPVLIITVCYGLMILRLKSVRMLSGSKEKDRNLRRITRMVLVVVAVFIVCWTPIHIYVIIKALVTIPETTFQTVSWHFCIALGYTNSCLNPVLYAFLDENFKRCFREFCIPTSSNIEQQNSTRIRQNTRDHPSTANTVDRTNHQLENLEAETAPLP

| SMILES | EC50 (Cavia porcellus) [nM] | IC50 (Mu-type opioid receptor) [nM] | IC50 [1] [nM] | EC50 (Mus musculus) [nM] |
| --- | --- | --- | --- | --- |
| CCCC[C@@H](N)C(=O)NNC(=O)[C@H](Cc1ccccc1)NC(=O)CNC(=O)[C@@H](C)NC(=O)[C@@H](N)Cc1ccc(O)cc1 | 5.2 | 5.9 | 71 | 95 |
| C[C@@H](NC(=O)[C@@H](N)Cc1ccc(O)cc1)C(=O)NCC(=O)N[C@@H](Cc1c[nH]c2ccccc12)C(=O)NNC(=O)[C@H](N)Cc1ccccc1 | 26 | 8.3 | 46 | 130 |
| CCCC[C@H](N)C(=O)NNC(=O)[C@H](Cc1ccccc1)NC(=O)CNC(=O)[C@@H](C)NC(=O)[C@@H](N)Cc1ccc(O)cc1 | 24 | 1.3 | 21 | 20 |
| C[C@@H](NC(=O)[C@@H](N)Cc1ccc(O)cc1)C(=O)NCC(=O)N[C@@H](Cc1ccccc1)C(=O)NNC(=O)[C@H](N)Cc1ccccc1 | 2.4 | 0.74 | 15 | 27 |
| C[C@@H](NC(=O)[C@@H](N)Cc1ccc(O)cc1)C(=O)NCC(=O)N[C@@H](Cc1ccccc1)C(=O)NNC(=O)[C@H](N)Cc1ccc(O)cc1 | 15 | 1.6 | 16 | 45 |
| C[C@@H](NC(=O)[C@@H](N)Cc1ccc(O)cc1)C(=O)NCC(=O)N[C@@H](Cc1ccccc1)C(=O)NN | 90 | 4.7 | 230 | 290 |
| C[C@@H](NC(=O)[C@@H](N)Cc1ccc(O)cc1)C(=O)NCC(=O)N[C@@H](Cc1ccccc1)C(=O)NNC(=O)[C@H](N)Cc1c[nH]c2ccccc12 | 7.1 | 2 | 29 | 15 |
| C[C@@H](NC(=O)[C@@H](N)Cc1ccc(O)cc1)C(=O)NCC(=O)N[C@@H](Cc1ccccc1)C(=O)NNC(=O)[C@@H](N)Cc1ccccc1 | 9.8 | 0.88 | 30 | 32 |
| C[C@@H](NC(=O)[C@@H](N)Cc1ccc(O)cc1)C(=O)NCC(=O)N[C@@H](Cc1ccccc1)C(=O)NNC(=O)[C@H](Cc1ccccc1)NC(=O)CNC(=O)[C@@H](C)NC(=O)[C@@H](N)Cc1ccc(O)cc1 [BIPHALIN] | 8.8 | 1.4 |  | 27 |
